Data: patent publication US20100048543A1, “PYRIMIDINE COMPOUNDS HAVING TIES (TEK) INHIBITORY ACTIVITY” (ASTRAZENECA AB, priority 2005, published 2010)

What was measured:
[1] = target: T1, Tie2 receptor tyrosine kinase (Homo sapiens, UniProt Q02763); assay: In vitro receptor tyrosine kinase inhibition assay, Test (a) (ELISA); format: biochemical; conditions: recombinant human Tie2 kinase domain lysate, ATP 5 micromolar (or Km)
T1 construct: consist of only the intracellular portion C-terminal portion of the respective receptor, within which is found the kinase domain; made in house; host or cells: baculovirus/Sf21 insect cells (or alternative equivalent), used as cleared lysate
Protocol: a. In vitro Receptor Tyrosine Kinase Inhibition Assay
To test for inhibition of Tie2 receptor tyrosine kinase, compounds are evaluated in a non-cell based protein kinase assay by their ability to inhibit the protein kinase enzyme phosphorylation of a tyrosine containing polypeptide substrate in an ELISA based microtitre plate assay. In this particular case, the assay was to determine the IC50, for three different recombinant human tyrosine kinases Tie2, KDR and Flt.
To facilitate production of the tyrosine kinases, recombinant receptor genes were produced using standard molecular biology cloning and mutagenesis techniques. These recombinant proteins fragments encoded within these genes consist of only the intracellular portion C-terminal portion of the respective receptor, within which is found the kinase domain. The recombinant genes encoding the kinase domain containing fragments were cloned and expressed in standard baculovirus/Sf21 system (or alternative equivalent).
Lysates were prepared from the host insect cells following protein expression by treatment with ice-cold lysis buffer (20 mM N-2-hydroxyethylpiperizine-N′-2-ethanesulphonic acid (HEPES) pH7.5, 150 mM NaCl, 10% glycerol, 1% Triton X-100, 1.5 mM MgCl2, 1 mM ethylene glycol-bis (β-aminoethyl ether) N′,N′,N′,N′-tetraacetic acid (EGTA), plus protease inhibitors and then cleared by centrifugation. Tie2, KDR and Flt1 lysates were stored in aliquots at −80° C.
Constitutive kinase activity of these recombinant proteins was determined by their ability to phosphorylate a synthetic peptide (made up of a random co-polymer of Glutamic Acid, Alanine and Tyrosine in the ratio of 6:3:1). Specifically, Nunc Maxisorb™ 96-well immunoplates were coated with 100 microlitres of synthetic peptide Sigma P3899 (1 mg/ml stock solution in PBS diluted 1:500 in PBS prior to plate coating) and incubated at 4° C. overnight. Plates were washed in 50 mM HEPES pH 7.4 at room temperature to remove any excess unbound synthetic peptide.
The immobilised phospho-peptide product of the reaction was detected by immunological methods. Firstly, plates were incubated for 4 hours at room temperature with murine monoclonal anti-phosphotyrosin-HRP (Horseradish Peroxidase) conjugated antibodies (4G10 from Upstate Biotechnology UBI 16-105). Following extensive washing with PBS-T, HRP activity in each well of the plate was measured colorimetrically using 22′-Azino-di-[3-ethylbenzthiazoline sulfonate (6)]diammonium salt crystals ABTS (Sigma P4922—prepared as per manufactures instructions) as a substrate incubated for 30-45 minutes to allow colour development, before 100 ul of 1M H2SO4 was added to stop the reaction.
Quantification of colour development and thus enzyme activity was achieved by the measurement of absorbance at 405 nm on a Molecular Devices ThermoMax microplate reader. Kinase inhibition for a given compound was expressed as an IC50 value. This was determined by calculation of the concentration of compound that was required to give 50% inhibition of phosphorylation in this assay. The range of phosphorylation was calculated from the positive (vehicle plus ATP) and negative (vehicle minus ATP) control values.

[2] = target: T2, Tie2 receptor (Homo sapiens, UniProt Q02763); assay: Cellular Tie2 autophosphorylation assay, Test (b); format: cell-based; conditions: Ang1 ligand stimulated whole cells (e.g. EA.hy926/B3), immunoprecipitation/western blot; read-out: IC50 (μM) Test (b): Inhibition of autophosphorylation of Tie2 receptor tyrosine kinase
T2 construct: one can use natural cell lines or primary cells which are known to express the receptor of choice; endogenous in cells; host or cells: EA.hy926/B3 cells (HUVEC named as an alternative)
From the text: b. Cellular Tie2 Autophosphorylation Assay
This assay is based on measuring the ability of compounds to inhibit autophosphorylation of the Tie2 receptor which normally leads to the production of “activated” receptor that in turn initiates the particular signal transduction pathways associated with the receptor function.
Autophosphorylation can be achieved by a number of means. It is known that expression of recombinant kinase domains in baculoviral systems can lead to the production of phosphorylated and activated receptor. It is also reported that over expression of receptors in recombinant cell lines can itself lead to receptor autophosphorylation in the absence of the ligand (Heldin C-H. 1995 Cell: 80, 213-223; Blume-J. P, Hunter T. 2001 Nature: 411, 355-65). Furthermore, there are numerous literature examples in which chimaeric receptors have been constructed. In these cases the natural, external cell surface domain of the receptor has been replaced with that of a domain which is known to be readily dimerised via the addition of the appropriate ligand (e.g. TrkA-Tie2/NGF ligand (Marron, M. B., et al., 2000 Journal of Biological Chemistry: 275:39741-39746) or C-fins-Tie-1/CSF-1 ligand (Kontos, C. D., et al., 2002 Molecular and Cellular Biology: 22, 1704-1713). Thus when the chimaeric receptor expressed in a host cell line and the respective ligand is added, this induces autophosphorylation of the chimeric receptor's kinase domain. This approach has the advantage of often allowing a known (and often easily obtained) ligand to be used instead of having to identify and isolate the natural ligand for each receptor of interest.
Naturally if the ligand is available one can use natural cell lines or primary cells which are known to express the receptor of choice and simply stimulate with ligand to achieve ligand induced phosphorylation. The ability of compounds to inhibit autophosphorylation of the Tie2 receptor, which is expressed for example in EA.hy926/B3 cells (supplied by J. McLean/B. Tuchi, Univ. of N. Carolina at Chapel Hill, CB-4100, 300 Bynum Hall, Chapel Hill, N.C. 27599-41000, USA) or primary HUVEC (human umbilical vein endothelial cells—available from various commercial sources), can measured by this assay.
Natural Ang1 ligand can be isolated using standard purification technology from either tumour cell supernatants or alternatively the Ang1 gene can be cloned and expressed recombinantly using stand molecular biology techniques and expression systems. In this case one can either attempt to produce the ligand either in its native state or as recombinant protein which for example may have been genetically engineered to contain additional of purification tags (eg. polyhistidine peptides, antibody Fc domains) to facilitate the process.
Using the ligand stimulation of either EA.hy926/B3 or HUVEC cellular Tie2 receptor as the example, a Ang1 ligand stimulated cellular receptor phosphorylation assay can be constructed which can be used to analyse to determine the potential of compounds to inhibit this process. For example EA.hy926/B3 cells were grown in the appropriate tissue culture media plus 10% foetal calf serum (FCS) for two days in 6 well plates starting with an initial seeding density of 5×10^5 cells/well. On the third day the cells were serum starved for a total of 2 hours by replacing the previous media with media containing only 1% FCS. After 1 hour 40 minutes of serum starvation the media was removed and replace with 1 ml of the test compound dilutions (compound dilutions made in serum starvation media yet keeping the DMSO concentration below 0.8%). After 1.5 hours of serum starvation orthovanidate was added to a final concentration of 0.1 mM for the final 10 minutes of serum starvation. […]

T1 sequence (Q02763 770-1124 limits assumed): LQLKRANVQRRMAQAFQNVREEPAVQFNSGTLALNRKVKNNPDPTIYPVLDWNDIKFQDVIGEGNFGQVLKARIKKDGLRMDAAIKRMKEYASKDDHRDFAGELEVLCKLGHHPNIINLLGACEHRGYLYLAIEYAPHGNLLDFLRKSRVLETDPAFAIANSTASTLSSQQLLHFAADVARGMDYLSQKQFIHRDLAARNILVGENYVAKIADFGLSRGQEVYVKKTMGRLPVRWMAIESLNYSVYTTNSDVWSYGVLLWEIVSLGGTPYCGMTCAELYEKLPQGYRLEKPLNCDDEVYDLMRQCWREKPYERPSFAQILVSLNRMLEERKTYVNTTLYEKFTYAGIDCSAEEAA
T2 sequence (Q02763 23-1124): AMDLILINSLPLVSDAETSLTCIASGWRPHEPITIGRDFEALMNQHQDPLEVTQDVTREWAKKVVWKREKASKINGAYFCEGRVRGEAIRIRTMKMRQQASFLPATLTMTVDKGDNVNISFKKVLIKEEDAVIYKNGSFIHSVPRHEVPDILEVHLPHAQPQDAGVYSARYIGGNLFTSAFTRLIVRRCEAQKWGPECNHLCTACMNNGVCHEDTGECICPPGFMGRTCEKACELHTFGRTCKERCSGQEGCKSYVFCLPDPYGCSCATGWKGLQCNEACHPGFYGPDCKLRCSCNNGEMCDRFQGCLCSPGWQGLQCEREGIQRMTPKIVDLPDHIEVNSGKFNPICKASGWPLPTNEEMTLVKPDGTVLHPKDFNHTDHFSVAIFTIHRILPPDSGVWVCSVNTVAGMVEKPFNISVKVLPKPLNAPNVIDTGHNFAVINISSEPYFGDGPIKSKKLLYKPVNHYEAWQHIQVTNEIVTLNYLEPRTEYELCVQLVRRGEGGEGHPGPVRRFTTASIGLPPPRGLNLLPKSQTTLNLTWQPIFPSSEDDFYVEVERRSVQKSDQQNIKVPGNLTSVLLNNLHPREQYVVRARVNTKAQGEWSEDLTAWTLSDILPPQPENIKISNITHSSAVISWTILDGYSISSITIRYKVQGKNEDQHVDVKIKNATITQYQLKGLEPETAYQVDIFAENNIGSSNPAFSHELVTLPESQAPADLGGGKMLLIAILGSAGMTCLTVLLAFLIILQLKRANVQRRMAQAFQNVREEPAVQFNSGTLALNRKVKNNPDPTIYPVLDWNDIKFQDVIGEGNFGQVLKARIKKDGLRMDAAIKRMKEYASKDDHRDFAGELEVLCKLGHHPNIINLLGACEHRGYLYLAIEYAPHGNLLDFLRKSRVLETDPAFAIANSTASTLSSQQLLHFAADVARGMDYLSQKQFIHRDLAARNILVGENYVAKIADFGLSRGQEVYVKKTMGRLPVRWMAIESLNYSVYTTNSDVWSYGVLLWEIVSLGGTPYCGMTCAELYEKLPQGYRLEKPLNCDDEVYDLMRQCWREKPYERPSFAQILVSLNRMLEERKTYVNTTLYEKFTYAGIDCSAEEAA

| IC50 [1] [µM] | IC50 [2] [µM] | Structure (SMILES) |
| --- | --- | --- |
| 1.5 | 1.9 | Nc1ncnc(N)c1C#Cc1cccc(NC(=O)NCC2CCCO2)c1 (stereo not drawn) [Example 47, N-{3-[(4,6-diaminopyrimidin-5-yl)ethynyl]phenyl}-N′-(tetrahydrofuran-2-ylmethyl)urea] |
| 3.3 | 0.2 | Nc1ncnc(N)c1C#Cc1cccc(NC(=O)NCc2cccnc2)c1 [Example 45, N-{3-[(4,6-diaminopyrimidin-5-yl)ethynyl]phenyl}-N′-(pyridin-3-ylmethyl)urea] |
| 9 | 3.6 | Cc1conc1CNC(=O)Nc1cccc(C#Cc2c(N)ncnc2N)c1 [Example 50, N-{3-[(4,6-diaminopyrimidin-5-yl)ethynyl]phenyl}-N′-[(4-methylisoxazol-3-yl)methyl]urea] |

The next lines start with the compound.

| Structure (SMILES) | IC50 [1] [µM] | IC50 [2] [µM] |
| --- | --- | --- |
| Cc1ccc(CNC(=O)Nc2cccc(C#Cc3cnc(NCCCN4CCCCC4)nc3)c2)o1 [Example 14, N-[(5-methyl-2-furyl)methyl]-N′-[3-({2-[(3-piperidin-1-ylpropyl)amino]pyrimidin-5-yl}ethynyl)phenyl]urea] | 20 | 0.38 |
| Nc1ncc(C#Cc2cccc(NC(=O)NC(CCO)c3ccccc3)c2)cn1 (stereo not drawn) [Example 12, N-{3-[(2-aminopyrimidin-5-yl)ethynyl]phenyl}-N′-(3-hydroxy-1-phenylpropyl)urea] | 25 | 1.3 |
| Cc1ccc(CNC(=O)Nc2cccc(C#Cc3cnc(N)nc3)c2)o1 [Example 6, N-{3-[(2-aminopyrimidin-5-yl)ethynyl]phenyl}-N′-[(5-methyl-2-furyl)methyl]urea] | 20 | 1.7 |
